The values below are quoted from earlier work in US20250289807A1, “Inhibitors of ROCK2” (Graviton Bioscience BV, priority 2022, published 2025).

Data set [1] has as its system human adipose-derived stem cells. Conditions: cited from earlier work.
For data set [2], the system named is mouse 3T3-L1 pre-adipocytes. To be noted: cited from earlier work.

Consider `CC(C)NC(=O)COc1cccc(-c2nc(Nc3ccc4[nH]ncc4c3)c3ccccc3n2)c1` [KD025], for which the adipocyte differentiation entry in data set [1] and in data set [2] was “down-regulated adipocyte differentiation” each time.
